Our source for the CC50 and EC50 values is US12329741B2, “HBV inhibitor and its use” (priority 2019, dated 2025).

As usually defined, the CC50 is the concentration giving 50% cytotoxicity. Usually EC50 stands for the concentration that produces a half-maximal response. A higher EC50 goes with a less potent agent.

Series [1] in a line: Cytotoxicity test (Cell-titer Blue method) in HepG2.2.15 cells. Format: cell-based. The conditions noted are these: human, six days after treatment, highest concentration tested 100 μM, read-out: HepG2.2.15 cell viability CC50. The source says:
(§1) In this experiment, real-time fluorescent quantitative PCR (qPCR) method was used to detect the content of HBV DNA in the supernatant of HepG2.2.15 cells to determine the anti-hepatitis B virus activity of the compound in HepG2.2.15 cells, and to detect cell viability impact of the test compound against HepG2.2.15 by Cell-titer Blue method. In the experiment, entecavir (ETV) was used as a reference compound to monitor the quality of the experiment.
The compound concentration, plate layout, and compound treatment process are consistent with the antiviral experiments. In six days after the cells were treated with the compound, the cell viability was measured with Cell-titer Blue.
Analyze the data and calculate relative cell viability: Use the following formula to calculate the percentage of cell viability: % Cell viability=(sample fluorescence reading-fluorescence reading of culture medium control)/(fluorescence reading of DMSO control-fluorescence reading of the culture medium control)×100.
Finally, GraphPad Prism software was used to calculate the CC50 value of the compound.

The subject of another series is hepatitis B virus (HBV). As to the kind of experiment: Anti-hepatitis B virus activity: HBV DNA in supernatant of HepG2.2.15 cells by qPCR. The format is cell-based. Particulars: 192 h, supernatant collected on day 8.
Source text: as §1
On day 1, the cells were planted into a 96-well plate, the compound was added to treat the cells on day 2, a new culture medium containing the compound was replaced on day 5, and the supernatant was collected on day 8 to extract DNA. Quantitative PCR was used to detect the content of HBV DNA. Both the test compound and the control compound were diluted in a series of 3 times with 8 concentration points, and 2 replicate wells were measured in parallel. The final concentration of DMSO in the culture medium is 0.5%.
The calculation formula of the inhibition percentage is as follows: % inh.=(1-HBV copy number of sample/HBV copy number of 0.5% DMSO control)×100
EC50 was analyzed by Graphpad Prism software (four parameter logistic equations).
(In qPCR the cycle at which signal appears reflects the starting amount.)

On to `COCC1(NC(=O)C(=O)c2sc(C)c(C(=O)Nc3ccc4occc4c3)c2C)COC1` [Compound 41], for which the CC50 at 6 days in series [1] is over 100 µM. Also, the EC50 in the series with hepatitis B virus (HBV) was at most 0.05 µM.
As for `Cc1oc(C(=O)C(=O)NC2(C(F)(F)F)CC2)cc1C(=O)Nc1ccc(F)c(Cl)c1` [Compound 16, 2-Methyl-3-amide-N-(3-chloro-4-fluorophenyl)-5-(2-(1-trifluoromethyl-cyclopropylamino)-oxalyl)-furan], in series [1], the CC50 at 6 days was over 100 µM. The EC50 with hepatitis B virus (HBV) was in the range of 0.05 to 0.5 µM.
For `CC#CCNC(=O)C(=O)c1cc(C(=O)Nc2ccc(F)c(Cl)c2)c(C)o1` [Compound 5, 2-Methyl-3-amide-N-(3-chloro-4-fluorophenyl)-5-(2-(2-alkynylbutylamino)-oxalyl)-furan], in series [1], the CC50 at 6 days was over 100 µM. In the series on hepatitis B virus (HBV), this compound had an EC50 of 5 to 50 µM.
On to `C=CCn1cc(CNC(=O)C(=O)c2cc(C(=O)Nc3ccc(F)c(Cl)c3)c(C)o2)nn1` [Compound 10, 2-Methyl-3-amide-N-(3-chloro-4-fluorophenyl)-5-(2-(1-allyl-1H[1,2,3]-triazole-4-methylamino)-oxalyl)-furan], for which the CC50 at 6 days in series [1] was over 100 µM. Besides, the EC50 with hepatitis B virus (HBV) was over 50 µM.
Turning to `Cc1oc(C(=O)C(=O)NC(C)(C)C)cc1C(=O)Nc1ccc(F)c(C#N)c1` [Compound 21], in series [1], the 50% cytotoxic concentration (CC50) at 6 days was over 100 µM. In the series on hepatitis B virus (HBV), this compound returned an EC50 of 0.5 to 5 µM.
As to `C#CC(C)(C)NC(=O)C(=O)c1sc(C)c(C(=O)Nc2ccc3occc3c2)c1C` [Compound 39, 2,4-Dimethyl-3-amide-N-(benzofuran-5-yl)-5-(2-(1,1-dimethylpropynamido)-oxalyl)-Thiophene], the CC50 at 6 days in series [1] was over 100 µM. Moreover, the half-maximal effective concentration (EC50) in the series on hepatitis B virus (HBV) is at most 0.05 µM.
`Cc1sc(C(=O)C(=O)NC(C)(C)C)cc1C(=O)Nc1ccc(F)c(Cl)c1` [Compound 29, 2-Methyl-3-amide-N-(3-chloro-4-fluorophenyl)-5-(2-tert-butylamino-oxalyl)-thiophene]: in series [1], the CC50 at 6 days is over 100 µM. In the series on hepatitis B virus (HBV), the EC50 was 0.05 to 0.5 µM.
As to `Cc1c(C(=O)C(=O)NC(C)(C)C)csc1C(=O)Nc1ccc(F)c(Cl)c1` [Compound 85, 2-Amide-N-(3-chloro-4-fluoro-phenyl)-3-methyl-4-(2-tert-butylamino-oxalyl)-thiophene], the CC50 at 6 days in series [1] came out at 96 µM. In the series with hepatitis B virus (HBV), this compound registered an EC50 of 0.5 to 5 µM.
For `CC(C)(C)NC(=O)C(=O)c1cc(C(=O)Nc2ccc(F)cc2)c(C(C)(C)C)o1` [Compound 43, 2-tert-Butyl-3-amide-N-(4-fluorophenyl)-5-(2-tert-butylamino-oxalyl)-furan], in series [1], the CC50 at 6 days was over 100 µM. Besides, the EC50 with hepatitis B virus (HBV) lay within 5 to 50 µM.
With `COCC1(NC(=O)C(=O)c2c(C)c(C(=O)Nc3ccc4occc4c3)n(C)c2C)COC1` [Compound 62, 1,3,5-trimethyl-2-amide-N-(benzofuran-5-yl)-4-(2-(3-methoxymethyl-3-oxetan)(amino)-oxalyl)-pyrrole], the CC50 at 6 days in series [1] is over 100 µM. For the same compound, the EC50 in the series on hepatitis B virus (HBV) is at most 0.05 µM.
With `C#CCNC(=O)C(=O)c1c(C)c(C(=O)Nc2ccc3ncccc3c2)n(C)c1C` [Compound 68, 1,3,5-Trimethyl-2-amide-N-(quinolin-6-yl)-4-(2-propargylamino-oxalyl)-pyrrole], the CC50 at 6 days in series [1] was over 100 µM. In the series on hepatitis B virus (HBV), this compound came in with an EC50 of 0.5 to 5 µM.
Take `C#CCNC(=O)C(=O)c1c(C)c(C(=O)Nc2ccc3sccc3c2)n(C)c1C` [Compound 63, 1,3,5-Trimethyl-2-amide-N-(benzothiophen-5-yl)-4-(2-propargylamino-oxalyl)-pyrrole]: in series [1], the CC50 at 6 days was over 100 µM. Moreover, in the series on hepatitis B virus (HBV), the EC50 is 0.05 to 0.5 µM.
As for `Cc1oc(C(=O)C(=O)NC(C)(C)C)c(Cl)c1C(=O)Nc1cc(F)c(F)c(F)c1` [Compound 49, 2-Methyl-3-amide-N-(3,4,5-trifluorophenyl)-4-chloro-5-(2-tert-butylamino-oxalyl)-furan], the CC50 at 6 days in series [1] came out at 47 µM. For the same compound, in the series with hepatitis B virus (HBV), the EC50 fell in the range of 5 to 50 µM.
In the same order, the values of `C#CCNC(=O)C(=O)c1c(C)c(C(=O)Nc2ccc3c(c2)CCO3)n(C)c1C` [Compound 69, 1,3,5-Trimethyl-2-amide-N-(2,3-dihydrobenzofuran-5-yl)-4-(2-propargylamino-oxalyl)-pyrrole] are over 100 µM and 0.05 to 0.5 µM.
On the same counts, the results for `C#CC(C)(C)NC(=O)C(=O)c1c(C)c(C(=O)Nc2ccc(F)c(F)c2)n(S(C)(=O)=O)c1C` [Compound 81, 1-Methylsulfo-2-amide-N-(3,4-difluorophenyl)-3,5-dimethyl-4-(2-(1,1-dimethylpropynamine)-oxalyl)pyrrole] are over 100 µM and 0.05 to 0.5 µM.
Consider `Cc1c(C(=O)C(=O)NC2(C)COC2)c(C)n(C)c1C(=O)Nc1ccc2occc2c1` [Compound 57, 1,3,5-Trimethyl-2-amide-N-(benzofuran-5-yl)-4-(2-(3-methyl-3-oxetanino)-oxalyl)-pyrrole], for which the CC50 at 6 days in series [1] is over 100 µM. In the series on hepatitis B virus (HBV), this compound gave a concentration giving a half-maximal response (EC50) of at most 0.05 µM.
In the case of `C#Cc1cccc(NC(=O)c2cc(C(=O)C(=O)NC(C)(C)C)oc2C)c1` [Compound 28, 2-Methyl-3-amide-N-(3-alkynylphenyl)-5-(2-tert-butylamino-oxalyl)-furan], in series [1], the CC50 at 6 days was over 100 µM. Besides, in the series with hepatitis B virus (HBV), the EC50 lay within 5 to 50 µM.
For `Cc1oc(C(=O)C(=O)NCc2c[nH]nn2)cc1C(=O)Nc1ccc(F)c(Cl)c1` [Compound 17, 2-Methyl-3-amide-N-(3-chloro-4-fluorophenyl)-5-(2-(1H-1,2,3-triazole-4-methylamino)-oxalyl)-furan], the CC50 at 6 days in series [1] is over 100 µM. The same compound registered an EC50 in the series with hepatitis B virus (HBV) of 5 to 50 µM.
In the same order, the values of `C#CCNC(=O)C(=O)c1c(C)c(C(=O)Nc2ccc3scnc3c2)n(C)c1C` [Compound 70, 1,3,5-Trimethyl-2-amide-N-(benzothiazol-5-yl)-4-(2-propargylamino-oxalyl)-pyrrole] are over 100 µM and 0.5 to 5 µM.
In the case of `Cc1oc(C(=O)C(=O)NCC#CC(C)C)cc1C(=O)Nc1ccc(F)c(Cl)c1` [Compound 6, 2-Methyl-3-amide-N-(3-chloro-4-fluorophenyl)-5-(2-(4-methyl-2-ynylpentylamino)-oxalyl)-furan], in series [1], the CC50 at 6 days was 82 µM. The compound further registered an EC50 with hepatitis B virus (HBV) of 5 to 50 µM.
As for `CNC(=O)C1(NC(=O)C(=O)c2c(C)c(C(=O)Nc3ccc4occc4c3)n(C)c2C)CC(F)(F)C1` [Compound 60, 1,3,5-Trimethyl-2-amide-N-(benzofuran-5-yl)-4-(2-(N-methyl-1-carboxamide-3,3-difluorocyclobutane-1-amine)-oxalyl)-pyrrole], the CC50 at 6 days in series [1] was over 100 µM. In the series on hepatitis B virus (HBV), this compound registered an EC50 of at most 0.05 µM.
Take `Cc1oc(C(=O)C(=O)NC(C)(C)C)cc1C(=O)Nc1ccc(F)cc1` [Compound 18, 2-Methyl-3-amide-N-(4-fluorophenyl)-5-(2-tert-butylamino-oxalyl)-furan]: the CC50 at 6 days in series [1] is over 100 µM. The compound also gave an EC50 with hepatitis B virus (HBV) of 0.5 to 5 µM.
In the same order, the values of `Cc1oc(C(=O)C(=O)NC(C)(C)C)cc1C(=O)Nc1ccc(F)c(Cl)c1` [Compound 1, 2-Methyl-3-amide-N-(3-chloro-4-fluorophenyl)-5-(2-tert-butylamino-oxalyl)-furan] are over 100 µM and 0.5 to 5 µM.
Regarding `Cc1oc(C(=O)C(=O)Nc2ccccc2)cc1C(=O)Nc1ccc(F)c(Cl)c1` [Compound 9, 2-Methyl-3-amide-N-(3-chloro-4-fluorophenyl)-5-(2-anilino-oxalyl)-furan], the CC50 at 6 days in series [1] was over 100 µM. In the series with hepatitis B virus (HBV), this compound showed an EC50 of 5 to 50 µM.
In the case of `C#CCNC(=O)C(=O)c1c(C)c(C(=O)Nc2ccc3nccnc3c2)n(C)c1C` [Compound 67, 1,3,5-Trimethyl-2-amide-N-(quinoxalin-6-yl)-4-(2-propargylamino-oxalyl)-pyrrole], the CC50 at 6 days in series [1] was over 100 µM. This compound displayed an EC50 in the series with hepatitis B virus (HBV) of 0.5 to 5 µM.
In the case of `C#CC(C)NC(=O)C(=O)c1cc(C(=O)Nc2ccc(F)c(Cl)c2)c(C)o1` (stereo not shown) [Compound 3, 2-Methyl-3-amide-N-(3-chloro-4-fluorophenyl)-5-(2-(1-methylpropynamido)-oxalyl)-furan], the CC50 at 6 days in series [1] was over 100 µM. The EC50 with hepatitis B virus (HBV) fell in the range of 0.5 to 5 µM.
Regarding `C#CC1(NC(=O)C(=O)c2c(C)c(C(=O)Nc3ccc4occc4c3)n(C)c2C)CC1` [Compound 55, 1,3,5-Trimethyl-2-amide-N-(benzofuran-5-yl)-4-(2-(1-ethynylcyclopropane-1-amino)-oxalyl)-Pyrrole], the CC50 at 6 days in series [1] was over 100 µM. Further, the concentration giving a half-maximal response (EC50) with hepatitis B virus (HBV) is at most 0.05 µM.
With `Cc1c(C(=O)C(=O)NC2CCCC2)c(C)n(C)c1C(=O)Nc1ccc2occc2c1` [Compound 58, 1,3,5-Trimethyl-2-amide-N-(benzofuran-5-yl)-4-(2-cyclopentylamino-oxalyl)-pyrrole], the CC50 at 6 days in series [1] is over 100 µM. In the series with hepatitis B virus (HBV), this compound gave an EC50 of at most 0.05 µM.
Regarding `C#CCNC(=O)C(=O)c1c(C)c(C(=O)Nc2ccc3c(cnn3C)c2)n(C)c1C` [Compound 73, 1,3,5-trimethyl-2-amide-N-(1-methyl-1H-indazol-5-yl)-4-(2-propargylamino-oxalyl)-pyrrole], the CC50 at 6 days in series [1] was over 100 µM. This compound also registered an EC50 with hepatitis B virus (HBV) of 0.5 to 5 µM.
